Experimental data published in US20200032163A1, “Method for the Virus Inactivation of a Preparation of Monoclonal Antibodies” (Laboratoire Francais du Fractionnement et des …, priority 2016, published 2020).

How the values were obtained:
[1] = Adsorption of polysorbate 80 and TnBP by the multilayer film of the 75 mL flexible bag (HPLC)
[2] = Distribution of the concentration of Triton X-100 in a 50 L bag (RP-HPLC); assay type: physicochemical; conditions: 1% Triton X-100 in purified water
[3] = Adsorption of Triton X-100 by the multilayer film of the 75 mL flexible bag (HPLC); assay type: physicochemical; conditions: 120 minutes
Method: In parallel, a negative control was carried out, repeating the experiment in a 0.5 litre glass flask filled with 316 mL of a 1% Triton X-100® solution. […] Samples were taken after 0 and 120 minutes.

[4] = Bag according to the invention, 30 min, 25±3° C.
[5] = Bag according to the invention, 1 hour, 25±3° C.
[6] = Bag according to the invention, 2 hours, 25±3° C.

Substance | adsorption by the bag ([1]; 75 mL flexible bag, 2 hours, 25±3° C.) | Polysorbate 80 Concentration ([1]; Bag according to the invention, 0 min, 25±3° C.) [mg/L] | Polysorbate 80 Adsorption with respect to T0 [1, 4] [%] | Polysorbate 80 Concentration [1, 4] [mg/L] | Polysorbate 80 Adsorption with respect to T0 [1, 5] [%] | Polysorbate 80 Concentration [1, 5] [mg/L] | Polysorbate 80 Adsorption with respect to T0 [1, 6] [%] | Polysorbate 80 Concentration [1, 6] [mg/L] | Polysorbate 80 Concentration ([1]; Glass flask (negative control), 30 min) [mg/L] | concentration after 2 hours of incubation ([1]; in the bag or in the glass flask) | greatest difference observed between the lower and higher concentrations measured ([2]; 0 to 120 minutes) [%] | difference in concentration of Triton X-100 between the upper part and the bottom of the bag ([2]; stirring 40 rpm) [%] | reduction of the concentration of Triton X-100 ([3]; 0.5 litre glass flask (negative control), 1% solution, magnetic stirring) [%] | adsorption of the Triton X-100 by the bag ([3]; 75 mL flexible bag, 1% (w/w) solution) | reduction of the concentration of Triton X-100 ([3]; 75 mL flexible bag, 1% (w/w) solution, orbital stirring, 20±5° C.) [%]
polyethylene glycol monooleate [Polysorbate 80] | no significant adsorption | 11147 | −2.3 | 11408 | −3.3 | 11519 | −2.6 | 11432 | 10374 | stable |  |  |  |  | 
polyethylene glycol tert-octylphenyl ether [Triton X-100®] |  |  |  |  |  |  |  |  |  |  | 7.90 | 2.7 | 3.1 | no significant adsorption | 5
